Where “and” joins values, the source holds several entries; their conditions need not be identical. Equal entries are not always repeated. Where two headings read alike, the source gives them in different places.
Key:
[1] = system: crude membrane containing Cho1; assay: radioactive PS synthase assay on crude membrane containing Cho1; format: biochemical, Candida albicans; details: compounds at 1 mM
Description: Enzymatic activity of Cho1 in the presence of the compounds was measured using the radioactive PS synthase assay. For purified Cho1, the procedure was fully described in reference ([33]). Briefly, 1–2 μg of purified Cho1 was added to the reaction containing 50 mM Tris-HCl (pH 8.0), 1 mM MnCl2, 0.1% Triton X-100, 0.04% digitonin, 0.1 mM (4.7 mol %), 16:0 CDP-DAG (Avanti, cat# 870510), and 0.5 mM L-serine [spiked with 5% (by volume) L-[^3H]-serine (15 Ci/mmol)] at a total volume of 100 µL, in the presence of 100 µM of each compound or equivalent DMSO solvent. The reaction was conducted at 30°C for 30 min, and [^3H]PS produced in the reaction was measured using a liquid scintillation counter. For crude membrane samples, crude membrane preps from wildtype and cho1ΔΔ strains were collected and assayed as described in reference ([33]) with the exception that 2 mM L-serine [spiked with 5% (by volume) L-[^3H]-serine (15 Ci/mmol)] was used in each reaction. A final concentration of 1 mM of each compound was used for the crude membrane samples.

[2] = target: purified C. albicans Cho1 (phosphatidylserine synthase) (Candida albicans, UniProt A0A1D8PF32); assay: malachite-green-based nucleotidase-coupled assay, dose-response; format: biochemical; details: top 200 µM, 3 h at 30°C, three replicates
Sequence of purified C. albicans Cho1 (phosphatidylserine synthase) (A0A1D8PF32 entry or part of it): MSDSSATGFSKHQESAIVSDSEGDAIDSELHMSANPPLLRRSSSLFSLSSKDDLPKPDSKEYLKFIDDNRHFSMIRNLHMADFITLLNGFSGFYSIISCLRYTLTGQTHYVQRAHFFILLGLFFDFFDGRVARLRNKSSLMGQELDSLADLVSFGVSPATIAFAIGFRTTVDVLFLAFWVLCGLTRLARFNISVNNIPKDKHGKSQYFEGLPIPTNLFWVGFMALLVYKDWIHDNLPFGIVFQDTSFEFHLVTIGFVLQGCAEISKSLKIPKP
Description: A malachite-green-based nucleotidase-coupled assay was used to measure the PS synthesis activity of Cho1 (Fig. 1B). Cho1 catalyzes the production of PS and cytidylmonophosphate (CMP) from CDP-DAG and serine, where CMP can then be recognized and cleaved by the nucleotidase CD73 to release inorganic phosphate, which is subsequently detected by malachite green. To test whether this malachite-green-based assay can reflect Cho1 activity, a time-course test was performed with a fixed amount of purified Cho1 in the presence of substrates (Fig. 1C).
The bioactives library was purchased from Selleck in 2014, and the remaining libraries (anti-infectives and mechanism of action libraries) were assembled from compounds available at the Chemical Biology and Therapeutics Department at St. Jude Children’s Research Hospital. The anti-infectives library contains a curated list of antimicrobials and antiviral agents ([95]). The bioactive library has a compilation of compounds acquired from commercial sources and external academic collaborators. The mechanism of action set is a dynamic set of well-annotated compounds with comprehensive coverage of human targets and mechanisms of action ([96]). All compounds were dissolved in DMSO and 100 nL was transferred to a 384-well clear bottom plate (ThermoFisher Scientific, cat# 265203) using a Beckman Echo 650 acoustic liquid handler. Equal volumes of either the selective CD73 nucleotidase inhibitor AB680 at a final concentration of 1 µM (MedChemExpress, cat# HY-125286) or DMSO were used as positive and negative controls, respectively. A total of 30–35 ng of purified Cho1 protein was used in each reaction in 50 mM Tris-HCl (pH 8.0) for primary screening, combined with 100 µM CDP-DAG (Avanti, cat# 870510), 5 mM serine, 0.4 ng CD73 nucleotidase (R&D systems, cat# EA002), 1 mM MnCl2, 0.1% APX-100, and 0.1% digitonin, in a total volume of 10 µL. Counter screen reactions were set up by replacing only the purified Cho1 with 150 µM CMP, with all other components remaining constant. The 10 µL primary and counter screening reactions were delivered to each well of 384-well assay plates containing pre-aliquoted compounds from the library using a Multidrop Combi (ThermoFisher Scientific). […] After media transfer, assay plates were incubated for 3 h at 30°C. Plates were then removed and 32 µL of malachite green mixture [6 µL malachite A (2%, wt/vol, ammonium molybdate and 20%, vol/vol, sulfuric acid in H2O) +20 µL H2O + 6 µL malachite B (0.1%, wt/vol, malachite green oxalate and 0.5%, wt/vol, polyvinyl alcohol in H2O)] were added to each well via a MultiDrop Combi and incubated for an additional 10 min at room temperature. After incubation, plates were briefly centrifuged at 500 × g and absorbance at 620 nm was then measured using a Cytation7 plate reader (Biotek, Winooski, VT). Raw absorbance values of the compounds were normalized to DMSO (0% inhibition) and AB680 (100% inhibition) from both primary and counter screens, and % Δinhibition was calculated by […]. Z-factors for each plate were calculated using the in-house program RISE (Robust Investigation of Screening Experiments). All non-PAINs compounds that had >80% Δinhibition progressed to dose-response testing (82 total compounds). Dose-response experiments were performed in triplicate as described above using a 10-point, threefold serial dilution with the top concentration for each compound tested being 200 µM (range: 0.010161–200 μM). The absorbance at 620 nm was then measured using a PHERAstar FS multilabel reader (BMG, Cary, NC). Raw values were once again normalized to DMSO (0% inhibition) and AB680 (100% inhibition) and Z-factors for each plate were calculated using RISE. […]

[3] = Best-fit IC50, inhibition of Cho1, 10-point dose-response

Compound	PS production in native crude membranes [1]	IC50 [2, 3]	IC50 ([2]; 10-point dose-response, read-out: Best-fit IC50, inhibition of Cho1) [µM]
CCOC(=O)c1sc(NC(=O)c2ccco2)c(SC#N)c1C [CBR-5884]	decreased PS production	≤ 20 µM and ~8.44 µM	–
O=c1c2ccccc2[se]n1-c1ccccc1 [Ebselen]	decreased PS production	≤ 20 µM and ~11.1 µM and 11.1 µM	–
O=C(C1CC1)N1CCN(Cn2sc3ccccc3c2=O)CC1 [LOC14]	decreased PS production	–	~75.5

— article PMC11077991, “The small molecule CBR-5884 inhibits the Candida albicans phosphatidylserine synthase” (mBio, 2024)
